Data published in patent publication US20250170224A1, “METHODS AND COMPOSITIONS FOR TREATING MICROGLIAL DYSFUNCTION AND IMPROVING METABOLIC DYSFUNCTION” (Ultimate Medicine AG, priority 2021, published 2025).
“Also recorded” adds a separate entry of the source.

Experiments:
microglia = type: in vivo
Description: Mice of the aged group in the nontargeted metabolomics analysis were 17-18 months old. Except for nontargeted metabolomics and microbiota profiling, where only male mice were used, all groups included mice from both sexes. Mice were housed under a 12-hour light/12-hour dark cycle and temperatures of 18-23° C. with 40-60% humidity, with food and water given ad libitum. To avoid cage effects, mice from at least three different cages per experimental group were analyzed. […] For modulation of CML in aged animals, 18-month-old SPF housed C57BL/6 mice were treated orally every third day for 10 weeks with vehicle (20% hydroxypropyl-p-cyclodextrin in 1× phosphate-buffered saline (PBS)), 10 mg kg^−1 ellagic acid (EA) or 3,000 U kg^−1 intestinal alkaline phosphatase (IAP). To assess in vivo intestinal permeability, tracer fluorescein isothiocyanate (FITC)-labeled dextran (4 kDa: Sigma-Aldrich) was used. Briefly, mice were deprived of food 4 hours before and both food and water 4 hours after oral gavage using 200 μl of 80 mg ml^−1 FITC-dextran. Blood was collected retro-orbitally after 4 hours and fluorescence intensity was measured on fluorescence plates using an excitation wavelength of 493 nm and an emission wavelength of 518 nm. To assess in vivo intestinal permeability to CML, mice were treated with […] CML (0.36 mM). Blood was collected retro-orbitally immediately before and 4 hours after treatment. CML translocated into the circulation was measured by liquid chromatography-mass spectrometry (LC-MS). All animal experiments were approved by the local administration in Germany (Regierungsprasidium Freiburg) and were performed in accordance with the respective national, federal, and institutional regulations and the guidelines of the Federation of European Laboratory Animal Science Associations.
Mice were lethally anesthetized with ketamine (100 mg kg^−1 body weight) and xylazine (10 mg kg^−1 body weight) followed by perfusion with 1×PBS through the left heart chamber. For histology, brains were kept overnight in 4% paraformaldehyde (PFA). For flow cytometry and magnetic-activated cell sorting (MACS) beads cell sorting, brains were dissected, homogenized and filtered through a […] mesh. […] Myelin was removed from the top layer and the cell pellet was washed once with 1×PBS followed by antibody staining.
Brain specimens from the cortex were first fixed overnight in 3% glutaraldehyde at 4° C., washed with Sorensen buffer, and then transferred to 1% osmium tetroxide for 2 hours at room temperature. Next, samples were dehydrated by a graded series of ethanol (30-100%) followed by 100% propylene oxide, resin/propylene oxide (1:2 (v/v)) and resin/propylene oxide (2:1 (v/v)). Samples were embedded in resin via polymerization for 24 hours at 75° C. Then, 700-nm semithin sections were cut and stained with 2% toluidine blue to define the region of interest for further preparation of 70 nm ultrathin sections using an ultramicrotome (Leica Reichert Ultracut S) after contrasting the sections with uranyl acetate and lead citrate (Leica Reichert Ultrastainer). To assess the mitochondrial phenotype in microglia, images were acquired with a ×7,900 or ×46,000 magnification using a CM100 electron microscope (Philips).
Cell sorting for RT-qPCR and RNA sequencing (RNA-seq) was performed on a MoFlo Astrios (Beckman Coulter; FIG. 7a). Before surface staining, dead cells were excluded by using the Fixable Viability Dye eFluor 780 (1:1,000 dilution; Thermo Fisher Scientific) followed by incubation with Fc receptor blocking antibody CD16/CD32 (1:200 dilution, clone 2.4G2; BD Bioscience). […] To assess microglial cellular reactive oxidative species (ROS), the CellROX DeepRed Reagent ([…]; Thermo Fisher Scientific) was used. To assess mitochondrial activity, Tetramethylrhodamine, Methyl Ester, Perchlorate (50 nM; Thermo Fisher Scientific) and MitoTracker Green FM (20 nM; Thermo Fisher Scientific) were used.

[1] = tested on: bone marrow-derived macrophages (BMDMs); experiment: Bone marrow derived macrophages incubated with increasing concentrations of CML for 48 hours; type: cell-based, murine; details: in vitro, increasing concentrations of CML (0.1 pM, 1 pM, 10 pM, 100 pM, 1 mM)
Description: Cells were cultured at 37° C. and 5% CO2 in a humidified incubator. Murine BMDMs were differentiated from tibial and femoral bone marrow aspirates. Recombinant murine macrophage colony-stimulating factor (Immunotools) was used at 20 ng ml^−1. After 7 days of differentiation, BMDMs were seeded in 24-well plates with 5×10^5 cells per well in triplicates. The medium was switched to serum-free medium 6 hours before the experiment. Cells were incubated with increasing concentrations of CML (untreated, 0.1 pM, 1 pM, 10 pM, 100 pM, 1 mM) for 48 hours, then collected for measurements.
Cell sorting for RT-qPCR and RNA sequencing (RNA-seq) was performed on a MoFlo Astrios (Beckman Coulter; FIG. 7a). Before surface staining, dead cells were excluded by using the Fixable Viability Dye eFluor 780 (1:1,000 dilution; Thermo Fisher Scientific) followed by incubation with Fc receptor blocking antibody CD16/CD32 (1:200 dilution, clone 2.4G2; BD Bioscience). The following antibodies were used for surface staining: anti-CD45 (1:200 dilution, clone 30-F11; Thermo Fisher Scientific); anti-CD11b (1:200 dilution, clone MI/70; Thermo Fisher Scientific). The following lineage antibodies were used (all at 1:300 dilution): anti-CD3 (clone 17A2; BioLegend); anti-CD19 (clone 6D5; BioLegend); anti-CD45R (clone RA3-6B2; BD Biosciences); Ly6C (clone AL-21; BD Biosciences); Ly6G (clone 1A8; BD Biosciences). […]

[2] = young-adult mice, i.p. once per day for two weeks

N[C@@H](CCCCNCC(=O)O)C(=O)O [CML, N^6-carboxymethyllysine]
brain CML concentrations after intraperitoneal injection of CML (microglia; young-adult SPF mice, targeted metabolomics): increased brain CML concentrations
damage to mitochondrial structures in microglia (electron microscopy) (microglia; young-adult mice treated with CML i.p.): caused mitochondrial dysfunction by directly inflicting damage to mitochondrial structures
microglial gene expression (RNA-seq) after intraperitoneal injection (microglia; young-adult mice, CML versus vehicle): upregulated the expression of the ROS-related genes S100a9 and S100A8; also recorded: upregulated the expression of the ROS-related genes, S100a9 and S100A8
cellular ATP stores in microglia (microglia; [2]): reduced cellular ATP stores
metabolic function (metabolic/mitochondrial activity) of microglia (microglia; [2]): decreased metabolic activity
recapitulation of the changes found in the microglia of aged mice (microglia; [2]): partially recapitulate the changes found in the microglia of aged mice
intracellular ROS production / oxidative stress in microglia (microglia; young-adult mice, i.p. once per day for two weeks, CellROX): increased oxidative stress
metabolic activity (mitochondrial activity) in BMDMs [1]: decreased metabolic activity
oxidative stress (cellular ROS) in BMDMs [1]: dose-dependent increase in oxidative stress
